Laboratory results reported in US20240158446A1, “CYCLIC COMPOUND HAVING SELECTIVE INHIBITORY ACTION ON KRAS OVER HRAS AND NRAS” (CHUGAI SEIYAKU KABUSHIKI KAISHA, priority 2021, published 2024).
Like-named read-outs stand apart in the source and are kept apart here. Where a SMILES comes first, the peptide text is derived from it. Bridges are numbered along the chain shown (N, C = ends). [ ]: non-standard residue; d: D form. hPhe(3-Cl-4-CF3) = N[C@@H](CCc1ccc(C(F)(F)F)c(Cl)c1)C(=O)O; NPrPhe(4-CF3) = CCCN[C@@H](Cc1ccc(C(F)(F)F)cc1)C(=O)O; NMeGly(cPent) = CN[C@H](C(=O)O)C1CCCC1; NMeD = CN[C@@H](CC(=O)O)C(=O)O; NMeL = CN[C@@H](CC(C)C)C(=O)O; Ac4c = NC1(C(=O)O)CCC1; Sar = CNCC(=O)O

Columns and labels:
[1] = molecular target: GDP-bound KRAS wild-type protein (Homo sapiens, UniProt P01116); assay: Binding to KRAS by surface plasmon resonance (SPR), Single Cycle Kinetics; conditions: GDP-bound KRAS wild-type protein, read-out: KRAS KD
[2] = molecular target: GDP-bound NRAS wild-type protein (Homo sapiens, UniProt P01111); assay: Binding to NRAS by surface plasmon resonance (SPR), Single Cycle Kinetics; conditions: SPR, GDP-bound NRAS wild-type protein vs GDP-bound KRAS wild-type protein
[3] = molecular target: GDP-bound HRAS wild-type protein (Homo sapiens, UniProt P01112); assay: Binding to HRAS by surface plasmon resonance (SPR), Single Cycle Kinetics; conditions: SPR, GDP-bound HRAS wild-type protein vs GDP-bound KRAS wild-type protein
[4] = SPR Single Cycle Kinetics, 1:1 binding model

GDP-bound HRAS wild-type protein, sequence (P01112 whole entry): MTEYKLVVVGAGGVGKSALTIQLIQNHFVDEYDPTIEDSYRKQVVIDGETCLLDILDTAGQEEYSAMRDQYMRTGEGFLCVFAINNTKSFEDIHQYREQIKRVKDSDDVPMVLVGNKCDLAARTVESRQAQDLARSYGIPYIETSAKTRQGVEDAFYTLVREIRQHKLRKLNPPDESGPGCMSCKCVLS
GDP-bound NRAS wild-type protein, sequence (P01111 whole entry): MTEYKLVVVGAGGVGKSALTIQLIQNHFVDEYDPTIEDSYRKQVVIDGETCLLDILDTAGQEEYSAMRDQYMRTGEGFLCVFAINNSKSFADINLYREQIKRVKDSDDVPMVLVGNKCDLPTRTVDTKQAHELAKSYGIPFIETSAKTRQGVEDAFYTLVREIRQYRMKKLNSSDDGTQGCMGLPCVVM
GDP-bound KRAS wild-type protein, sequence (P01116 whole entry): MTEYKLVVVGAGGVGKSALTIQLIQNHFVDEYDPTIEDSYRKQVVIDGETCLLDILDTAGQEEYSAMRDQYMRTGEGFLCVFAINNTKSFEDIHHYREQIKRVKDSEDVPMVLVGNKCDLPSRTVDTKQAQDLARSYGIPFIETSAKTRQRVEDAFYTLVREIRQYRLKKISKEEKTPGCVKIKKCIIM

SMILES	Kd [1, 4]	NRAS/KRAS (ratio of KD value with respect to NRAS to KD value with respect to KRAS) [2]	HRAS/KRAS (ratio of KD value with respect to HRAS to KD value with respect to KRAS) [3]	Kd ([1]; SPR, Single Cycle Kinetics)	NRAS/KRAS (ratio of KD value for NRAS to KD value for KRAS) [2]	HRAS/KRAS (ratio of KD value for HRAS to KD value for KRAS) [3]	other results
CCCN1C(=O)CN(C)C(=O)CN(C)C(=O)[C@H]([C@@H](C)CC)NC(=O)[C@H](CC(C)C)N(C)C(=O)C[C@@H](C(=O)N(C)C)N(C)C(=O)[C@H](C2CCCC2)N(C)C(=O)C2(CCC2)NC(=O)[C@@H]2CCCN2C(=O)[C@H](CCc2ccc(C(F)(F)F)c(Cl)c2)NC(=O)CN(C)C(=O)[C@@H]1Cc1ccc(C(F)(F)F)cc1 [PP0412] ([NMeL]I[Sar][Sar][NPrPhe(4-CF3)][Sar][hPhe(3-Cl-4-CF3)]P[Ac4c][NMeGly(cPent)][NMeD]-NMe2; lactam N-11)	0.043 nM	B (a compound having 3 or more and less than 10 is denoted as B)	C (A compound having a KD ratio of 0.1 or more and less than 3 is denoted as C)				
CCO[C@@H]1C[C@H]2C(=O)NC3(CCC3)C(=O)N(C)[C@@H](C3CCCC3)C(=O)N(C)[C@H](C(=O)N(C)C)CC(=O)N(C)[C@@H](COC)C(=O)N[C@@H]([C@@H](C)CC)C(=O)NCC(=O)N(C)[C@H]3CCCCCN(C3=O)[C@@H](Cc3ccc(C(F)(F)F)cc3)C(=O)N(C)CC(=O)N[C@@H](CCc3cc(F)c(C(F)(F)F)c(F)c3)C(=O)N2C1 [PP0859]				0.31 nM	B (a compound having 3 or more and less than 10 is denoted as B)	B (a compound having 3 or more and less than 10 is denoted as B)	
CCO[C@@H]1C[C@H]2C(=O)NC3(CC(C)(C)C3)C(=O)N(C)[C@@H](C(CC)CC)C(=O)N(C)[C@H](C(=O)N(C)C)CC(=O)N(C)[C@@H](CC3CCC3)C(=O)N[C@@H]([C@@H](C)CC)C(=O)N(C)CC(=O)N(C)[C@H]3C/C=C\CCN(C3=O)[C@@H](Cc3ccc(C)cc3)C(=O)N(C)CC(=O)N[C@@H](CCc3cc(F)c(C(F)(F)F)c(F)c3)C(=O)N2C1 [PP2151]				0.29 nM	A (a compound having 10 or more and less than 20 is denoted as A)	A (a compound having 10 or more and less than 20 is denoted as A)	
CCO[C@@H]1C[C@H]2C(=O)NC3(CCC3)C(=O)N(C)[C@@H](C3CCCC3)C(=O)N(C)[C@H](C(=O)N(C)C)CC(=O)N(C)[C@@H](Cc3cccnc3)C(=O)N[C@@H]([C@@H](C)CC)C(=O)N(C)CC(=O)N(C)[C@H]3CCCCCN(C3=O)[C@@H](Cc3ccc(C(F)(F)F)cc3)C(=O)N(C)CC(=O)N[C@@H](CCc3cc(F)c(C(F)(F)F)c(F)c3)C(=O)N2C1 [PP0673]	0.12 nM	B (a compound having 3 or more and less than 10 is denoted as B)	B (a compound having 3 or more and less than 10 is denoted as B)				
CCO[C@@H]1C[C@H]2C(=O)NC3(CCC3)C(=O)N(C)[C@@H](C3CCCC3)C(=O)N(C)[C@H](C(=O)N(C)CCOC)CC(=O)N(C)[C@@H](CC)C(=O)N[C@@H]([C@@H](C)CC)C(=O)N(C)CC(=O)N(C)[C@H]3C/C=C\CCN(C3=O)[C@@H](Cc3ccc(C(F)(F)F)cc3)C(=O)N(C)CC(=O)N[C@@H](CCc3ccc(C(F)(F)F)c(OC)c3)C(=O)N2C1 [PP1321, (2S,8S,12R,14S,20S,23S,27S,30S,36S,38Z)-20-cyclopentyl-12-ethoxy-27-ethyl-N-(2-methoxyethyl)-8-[2-[3-methoxy-4-(trifluoromethyl)phenyl]ethyl]-N,4,19,22,26,32,35-heptamethyl-30-[(1S)-1-methylpropyl]-3,6,9,15,18,21,25,28,31,34,42-undecaoxo-2-[[4-(trifluoromethyl)phenyl]methyl]spiro[1,4,7,10,16,19,22,26,29,32,35-undecazatricyclo[34.5.1.0^10,14]dotetracont-38-ene-17,1′-cyclobutane]-23-carboxamide]							Kd ([1]; SPR, Single Cycle Kinetics, 1:1 binding model): 0.08 nM; NRAS/KRAS (ratio of KD value for NRAS to KD value for KRAS) ([2]; KD ratio class): A (a compound having 10 or more and less than 20 is denoted as A); HRAS/KRAS (ratio of KD value for HRAS to KD value for KRAS) ([3]; KD ratio class): B (a compound having 3 or more and less than 10 is denoted as B)
CCO[C@@H]1C[C@H]2C(=O)NC3(CCC3)C(=O)N(C)[C@@H](C3CCCC3)C(=O)N3CCC[C@@H]3CC(=O)N(C)[C@@H](CC)C(=O)N[C@@H]([C@@H](C)CC)C(=O)N(C)CC(=O)N(C)[C@H]3C/C=C\CCN(C3=O)[C@@H](Cc3ccc(C(F)(F)F)cc3)C(=O)N(C)CC(=O)N[C@@H](CCc3cc(F)c(C(F)(F)F)c(F)c3)C(=O)N2C1 [PP1097, (2S,8S,12R,14S,20S,26R,30S,33S,39S,41Z)-20-cyclopentyl-8-[2-[3,5-difluoro-4-(trifluoromethyl)phenyl]ethyl]-12-ethoxy-30-ethyl-4,19,29,35,38-pentamethyl-33-[(1 S)-1-methylpropyl]-2-[[4-(trifluoromethyl)phenyl]methyl]spiro[1,4,7,10,16,19,22,29,32,35,38-undecazatetracyclo[37.5.1.0^10,14.022,26]pentatetracont-41-ene-17,1′-cyclobutane]-3,6,9,15,18,21,28,31,34,37,45-undecone]				0.12 nM	B (a compound having 3 or more and less than 10 is denoted as B)	B (a compound having 3 or more and less than 10 is denoted as B)	
CC[C@H](C)[C@@H]1NC(=O)[C@H](C)N(C)C(=O)C[C@@H](C(=O)N2CCOCC2)N(C)C(=O)[C@H](C2CCCC2)N(C)C(=O)C2(CCC2)NC(=O)[C@@H]2CC(F)(F)CN2C(=O)[C@H](CCc2cc(F)c(C(F)(F)F)c(F)c2)NC(=O)CN(C)C(=O)[C@H](Cc2ccc(C(F)(F)F)cc2)N2CCCCC[C@@H](C2=O)N(C)C(=O)CN(C)C1=O [PP0471]	0.93 nM	B (a compound having 3 or more and less than 10 is denoted as B)	B (a compound having 3 or more and less than 10 is denoted as B)				
CCO[C@@H]1C[C@H]2C(=O)NC3(CCC3)C(=O)N(C)[C@@H](C3CCCC3)C(=O)N(C)[C@H](C(=O)N(C)C)CC(=O)N(C)[C@@H](CC3CC3)C(=O)N[C@@H]([C@@H](C)CC)C(=O)N(C)CC(=O)N(C)[C@H]3C/C=C\CCN(C3=O)[C@@H](Cc3ccc(C(F)(F)F)cc3)C(=O)N(C)CC(=O)N[C@@H](CCc3cc(F)c(C(F)(F)F)c(F)c3)C(=O)N2C1 [PP1111, (2S,8S,12R,14S,20S,23S,27S,30S,36S,38Z)-20-cyclopentyl-27-(cyclopropylmethyl)-8-[2-[3,5-difluoro-4-(trifluoromethyl)phenyl]ethyl]-12-ethoxy-N,N,4,19,22,26,32,35-octamethyl-30-[(1S)-1-methylpropyl]-3,6,9,15,18,21,25,28,31,34,42-undecaoxo-2-[[4-(trifluoromethyl)phenyl]methyl]spiro[1,4,7,10,16,19,22,26,29,32,35-undecazatricyclo[34.5.1.0^10,14]dotetracont-38-ene-17,1′-cyclobutane]-23-carboxamide]				0.045 nM	A (a compound having 10 or more and less than 20 is denoted as A)	A (a compound having 10 or more and less than 20 is denoted as A)	
C#CC[C@H]1C(=O)N[C@@H]([C@@H](C)CC)C(=O)N(C)CC(=O)N(C)[C@H]2C/C=C\CCN(C2=O)[C@@H](Cc2ccc(C(F)(F)F)cc2)C(=O)N(C)CC(=O)N[C@@H](CCc2cc(F)c(C(F)(F)F)c(F)c2)C(=O)N2C[C@H](OCC)C[C@H]2C(=O)NC2(CCC2)C(=O)N(C)[C@@H](C2CCCC2)C(=O)N(C)[C@H](C(=O)N(C)C)CC(=O)N1C [PP1115, (2S,8S,12R,14S,20S,23S,27S,30S,36S,38Z)-20-cyclopentyl-8-[2-[3,5-difluoro-4-(trifluoromethyl)phenyl]ethyl]-12-ethoxy-N,N,4,19,22,26,32,35-octamethyl-30-[(1S)-1-methylpropyl]-3,6,9,15,18,21,25,28,31,34,42-undecaoxo-27-prop-2-ynyl-2-[[4-(trifluoromethyl)phenyl]methyl]spiro[1,4,7,10,16,19,22,26,29,32,35-undecazatricyclo[34.5.1.0^10,14]dotetracont-38-ene-17,1′-cyclobutane]-23-carboxamide]				0.054 nM	A (a compound having 10 or more and less than 20 is denoted as A)	A (a compound having 10 or more and less than 20 is denoted as A)	
CC[C@H](C)[C@@H]1NC(=O)[C@H](CC(C)C)N(C)C(=O)C[C@@H](C(=O)N2CCOCC2)N(C)C(=O)[C@H](C2CCCC2)N(C)C(=O)C2(CCC2)NC(=O)[C@@H]2[C@@H](OC)CCN2C(=O)[C@H](CCc2cc(F)c(C(F)(F)F)c(F)c2)NC(=O)CN(C)C(=O)[C@H](Cc2ccc(C(F)(F)F)cc2)N2CCCC[C@@H](C2=O)N(C)C(=O)CN(C)C1=O [PP1075]				0.066 nM	B (a compound having 3 or more and less than 10 is denoted as B)	B (a compound having 3 or more and less than 10 is denoted as B)	
CC[C@H](C)[C@@H]1NC(=O)[C@H](CC(C)C)N(C)C(=O)C[C@@H](C(=O)N2CCOCC2)N(C)C(=O)[C@H](C2CCCC2)N(C)C(=O)C2(CCCCC2)NC(=O)[C@@H]2CCCN2C(=O)[C@H](CCc2cc(F)c(C(F)(F)F)c(F)c2)NC(=O)CN(C)C(=O)[C@H](Cc2ccc(C(F)(F)F)cc2)N2CCCC[C@@H](C2=O)N(C)C(=O)CN(C)C1=O [PP0561]	0.31 nM	B (a compound having 3 or more and less than 10 is denoted as B)	B (a compound having 3 or more and less than 10 is denoted as B)				
